This assay concerns the target T1, Solute carrier family 12 member 5 (Homo sapiens, UniProt Q9H2X9).
T1 sequence (Q9H2X9 whole entry): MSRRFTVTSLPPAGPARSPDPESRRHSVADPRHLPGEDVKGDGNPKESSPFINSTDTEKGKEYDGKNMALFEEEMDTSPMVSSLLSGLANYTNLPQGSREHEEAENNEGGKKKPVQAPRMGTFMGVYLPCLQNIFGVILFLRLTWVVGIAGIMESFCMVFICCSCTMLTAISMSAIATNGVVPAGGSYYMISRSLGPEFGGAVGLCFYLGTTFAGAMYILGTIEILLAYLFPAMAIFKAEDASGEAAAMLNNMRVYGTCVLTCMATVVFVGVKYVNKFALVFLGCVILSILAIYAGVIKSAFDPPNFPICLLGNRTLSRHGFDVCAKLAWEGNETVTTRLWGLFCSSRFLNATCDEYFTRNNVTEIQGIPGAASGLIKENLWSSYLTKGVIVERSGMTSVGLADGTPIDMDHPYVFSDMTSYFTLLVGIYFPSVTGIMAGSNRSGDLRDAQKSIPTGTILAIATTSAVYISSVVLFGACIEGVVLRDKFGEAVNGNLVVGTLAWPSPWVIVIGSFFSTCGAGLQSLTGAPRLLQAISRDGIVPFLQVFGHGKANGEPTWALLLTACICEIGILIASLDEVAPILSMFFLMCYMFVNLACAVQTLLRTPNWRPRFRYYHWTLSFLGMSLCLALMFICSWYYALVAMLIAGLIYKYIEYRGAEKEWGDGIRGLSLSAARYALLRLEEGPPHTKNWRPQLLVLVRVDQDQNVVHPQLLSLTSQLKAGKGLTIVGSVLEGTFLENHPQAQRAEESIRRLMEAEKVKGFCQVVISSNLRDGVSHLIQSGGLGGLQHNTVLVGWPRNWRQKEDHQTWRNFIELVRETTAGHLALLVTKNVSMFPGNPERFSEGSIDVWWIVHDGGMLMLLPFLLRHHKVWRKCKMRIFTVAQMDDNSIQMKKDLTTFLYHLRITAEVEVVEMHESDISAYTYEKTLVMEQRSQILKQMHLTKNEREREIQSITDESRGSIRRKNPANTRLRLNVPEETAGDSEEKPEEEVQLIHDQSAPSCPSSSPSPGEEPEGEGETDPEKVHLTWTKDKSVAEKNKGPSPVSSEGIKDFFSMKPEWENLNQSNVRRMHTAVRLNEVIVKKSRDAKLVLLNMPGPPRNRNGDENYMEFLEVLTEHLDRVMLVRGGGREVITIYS
Briefly: concentration-response of KCC2 transport modulators – cell-based, HEK293 KCC2, FluoZin-2 fluorescence, dose response (AID 1736).
A word on the EC50: it is the concentration giving half of the maximal effect. `O=c1[nH]c2ccc(S(=O)(=O)N3CCN(c4ccccc4F)CC3)cc2s1` [6-{[4-(2-fluorophenyl)piperazin-1-yl]sulfonyl}-1,3-benzothiazol-2(3H)-one]: the EC50 stood at 8.21 µM.

Compound `CC1CCCCN1C(=O)CSc1ccc(-c2ccc(F)cc2)nn1` (stereo not given) [2-[6-(4-Fluoro-phenyl)-pyridazin-3-ylsulfanyl]-1-(2-methyl-piperidin-1-yl)-ethanone] yielded a concentration for a half-maximal effect (EC50) of 8190 µM.

`Cc1ccc(Nc2nnc(SCC(=O)c3ccc(Br)s3)s2)c(C)c1` [1-(5-bromanylthiophen-2-yl)-2-[[5-[(2,4-dimethylphenyl)amino]-1,3,4-thiadiazol-2-yl]sulfanyl]ethanone] returned an EC50 of 1.02 µM.

On to `O=C(Cn1cnc2c(nnn2Cc2ccc(F)cc2)c1=O)NCc1ccc2c(c1)OCO2` [2-[3-(4-fluorobenzyl)-7-keto-triazolo[4,5-d]pyrimidin-6-yl]-N-piperonyl-acetamide], for which the 50% effective concentration (EC50) is 2.61 µM.

On to `O=C(c1cc2c(s1)-c1ccccc1OC2)N1CCC2(CC1)OCCO2` [1,4-dioxa-8-azaspiro[4.5]decan-8-yl(4H-thieno[3,2-c][1]benzopyran-2-yl)methanone], for which the 50% effective concentration (EC50) turned out to be 30.2 µM.

Values taken from BindingDB's records for doi:10.7270/Q2Q52N1X (Vanderbilt Screening Center for GPCRs, Ion Channels and …, 2009).
